# Source: US8283353B2, “Fused ring compound and use thereof” (Takeda Pharmaceutical Company Limited, priority 2009, dated 2012)
# What was measured:
# human PPARγ = target: T1, human PPARγ (Homo sapiens, UniProt P37231); experiment: PPARγ agonistic activity: luciferase reporter assay in PPARγ:RXRα:4ERPP/CHO-K1 cells; type: cell-based; conditions: CHO-K1, test compound 10^−6 M; luciferase activity of control compound X (1 μM) = 100%, non-administration group = 0%
# T1 construct: expressed in transfected cells
# T1 sequence (P37231 1-477 isoform P37231-2): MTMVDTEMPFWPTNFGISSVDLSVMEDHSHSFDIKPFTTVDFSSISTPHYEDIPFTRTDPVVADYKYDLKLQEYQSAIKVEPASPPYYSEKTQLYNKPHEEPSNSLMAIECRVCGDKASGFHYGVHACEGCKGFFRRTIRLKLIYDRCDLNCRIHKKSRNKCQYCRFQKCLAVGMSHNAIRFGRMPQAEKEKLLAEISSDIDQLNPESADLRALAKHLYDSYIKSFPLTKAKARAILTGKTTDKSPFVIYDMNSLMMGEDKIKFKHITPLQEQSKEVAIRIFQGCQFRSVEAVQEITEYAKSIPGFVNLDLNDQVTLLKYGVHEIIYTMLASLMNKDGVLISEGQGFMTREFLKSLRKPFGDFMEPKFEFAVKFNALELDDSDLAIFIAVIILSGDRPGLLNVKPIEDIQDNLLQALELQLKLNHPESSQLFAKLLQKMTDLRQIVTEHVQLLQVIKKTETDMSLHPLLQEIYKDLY
# T1 sequence (P19793 1-462 partner): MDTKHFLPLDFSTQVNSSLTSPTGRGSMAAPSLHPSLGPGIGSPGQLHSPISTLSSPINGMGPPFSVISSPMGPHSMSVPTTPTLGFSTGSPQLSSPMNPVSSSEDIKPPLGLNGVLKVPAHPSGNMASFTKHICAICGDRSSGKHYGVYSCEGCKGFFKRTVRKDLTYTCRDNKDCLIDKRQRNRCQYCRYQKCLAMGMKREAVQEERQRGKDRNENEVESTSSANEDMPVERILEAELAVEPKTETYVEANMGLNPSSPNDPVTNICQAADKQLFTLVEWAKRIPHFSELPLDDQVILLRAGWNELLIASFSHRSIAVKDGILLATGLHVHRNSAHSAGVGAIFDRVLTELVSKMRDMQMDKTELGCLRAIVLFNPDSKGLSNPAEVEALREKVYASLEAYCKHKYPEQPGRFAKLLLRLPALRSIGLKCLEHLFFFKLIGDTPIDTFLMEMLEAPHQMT
# Summary of the method: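 Activity is expressed relative to untreated cells (0%) and 1 μM reference compound X (100%), from luciferase luminescence. Reporter line: PPARγ:RXRα:4ERPP/CHO-K1, exposed to compound for one day at 37 °C in F12 medium containing 0.1% fatty-acid-free BSA.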
# human AT1 receptor = target: T2, human AT1 receptor (Homo sapiens, UniProt P30556); experiment: AT1 receptor antagonistic activity: [125I]-angiotensin II binding assay on human AT1 receptor-expressing CHO-K1 cellular membrane fraction; conditions: 22.5 pM [125I]-angiotensin II, 1 hr room temperature
# T2 construct: expressed in transfected cells; membrane fraction
# T2 sequence (P30556 1-359): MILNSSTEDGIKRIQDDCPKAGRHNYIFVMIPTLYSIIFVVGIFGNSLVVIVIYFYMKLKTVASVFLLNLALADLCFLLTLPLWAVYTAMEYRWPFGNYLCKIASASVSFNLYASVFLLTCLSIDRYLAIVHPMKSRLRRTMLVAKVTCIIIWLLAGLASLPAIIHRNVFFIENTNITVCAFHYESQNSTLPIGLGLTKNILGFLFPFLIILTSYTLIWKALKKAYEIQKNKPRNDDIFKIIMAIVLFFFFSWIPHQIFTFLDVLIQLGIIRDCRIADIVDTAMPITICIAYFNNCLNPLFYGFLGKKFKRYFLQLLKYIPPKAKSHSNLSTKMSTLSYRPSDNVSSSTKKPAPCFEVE
# Summary of the method: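 Competition binding used radiolabelled angiotensin II on stably transfected CHO-K1 membrane fractions in Tris pH 7.4/MgCl2 buffer, optionally containing 0.3 mg/mL fatty acid-free BSA, 1 hr at room temperature. Filtration onto GF/C separated bound tracer, and nonspecific binding was measured with candesartan.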
Structure (SMILES),activation at 1 µM (human PPARγ) [%],IC50 (human AT1 receptor) [nM]
"CCCCc1c(Cc2ccc(-c3ccccc3-c3noc(=O)[nH]3)cc2)c(=O)n(C2CCC(O)CC2)c2ncnn12 (stereo not shown) [Example 147, 7-butyl-4-(4-hydroxycyclohexyl)-6-{[2′-(5-oxo-4,5-dihydro-1,2,4-oxadiazol-3-yl)biphenyl-4-yl]methyl}[1,2,4]triazolo[1,5-a]pyrimidin-5(4H)-one]",26,1
"CCCCc1c(Cc2ccc(-c3ccccc3-c3noc(=O)[nH]3)cc2)c(=O)n(C2CCC(OC)CC2)c2ncnn12 (stereo not shown) [Example 148, 7-butyl-4-(4-methoxycyclohexyl)-6-{[2′-(5-oxo-4,5-dihydro-1,2,4-oxadiazol-3-yl)biphenyl-4-yl]methyl}[1,2,4]triazolo[1,5-a]pyrimidin-5(4H)-one]",52,1.9
"CCCc1c(Cc2ccc(-c3ccccc3-c3noc(=O)[nH]3)cc2)c(=O)n([C@H]2CC[C@]3(CCCO3)CC2)c2ncnn12 [Example 150, 4-[(5S,8S)-1-oxaspiro[4.5]dec-8-yl]-6-{[2′-(5-oxo-4,5-dihydro-1,2,4-oxadiazol-3-yl)biphenyl-4-yl]methyl}-7-propyl[1,2,4]triazolo[1,5-a]pyrimidin-5(4H)-one]",58,1.4
"CCCc1c(Cc2ccc(-c3ccccc3-c3noc(=O)[nH]3)cc2)c(=O)n([C@H]2CC[C@@]3(CCCO3)CC2)c2ncnn12 [Example 151, 4-[(5R,8R)-1-oxaspiro[4.5]dec-8-yl]-6-{[2′-(5-oxo-4,5-dihydro-1,2,4-oxadiazol-3-yl)biphenyl-4-yl]methyl}-7-propyl[1,2,4]triazolo[1,5-a]pyrimidin-5(4H)-one]",35,1.6
"CCCc1c(Cc2ccc(-c3ccccc3-c3noc(=O)[nH]3)cc2)c(=O)n(C2CCC(OC)CC2)c2ncnn12 (stereo not shown) [Example 152, 4-(4-methoxycyclohexyl)-6-{[2′-(5-oxo-4,5-dihydro-1,2,4-oxadiazol-3-yl)biphenyl-4-yl]methyl}-7-propyl[1,2,4]triazolo[1,5-a]pyrimidin-5(4H)-one]",39,2.4
"C=CCOC1CCC(n2c(=O)c(Cc3ccc(-c4ccccc4-c4noc(=O)[nH]4)cc3)c(CCC)n3ncnc23)CC1 (stereo not shown) [Example 153, 6-{[2′-(5-oxo-4,5-dihydro-1,2,4-oxadiazol-3-yl)biphenyl-4-yl]methyl}-4-[4-(prop-2-en-1-yloxy)cyclohexyl]-7-propyl[1,2,4]triazolo[1,5-a]pyrimidin-5(4H)-one]",53,1.9
"CCCc1c(Cc2ccc(-c3ccccc3-c3noc(=O)[nH]3)cc2)c(=O)n(C2CCC(OCCOC)CC2)c2ncnn12 (stereo not shown) [Example 154, 4-[4-(2-methoxyethoxy)cyclohexyl]-6-{[2′-(5-oxo-4,5-dihydro-1,2,4-oxadiazol-3-yl)biphenyl-4-yl]methyl}-7-propyl[1,2,4]triazolo[1,5-a]pyrimidin-5(4H)-one]",33,2.1
"CCCc1c(Cc2ccc(-c3ccccc3-c3noc(=O)[nH]3)c(C)c2)c(=O)n([C@H]2CC[C@H](OCC(C)(C)O)CC2)c2nc(C)nn12 [Example 155, 4-[trans-4-(2-hydroxy-2-methylpropoxy)cyclohexyl]-2-methyl-6-{[2-methyl-2′-(5-oxo-4,5-dihydro-1,2,4-oxadiazol-3-yl)biphenyl-4-yl]methyl}-7-propyl[1,2,4]triazolo[1,5-a]pyrimidin-5(4H)-one]",18,1.6
"CCCc1c(Cc2ccc(-c3ccccc3-c3noc(=O)[nH]3)cc2)c(=O)n([C@H]2CC[C@@H](OCCO)CC2)c2ncnn12 [Example 163, 4-[cis-4-(2-hydroxyethoxy)cyclohexyl]-6-{[2′-(5-oxo-4,5-dihydro-1,2,4-oxadiazol-3-yl)biphenyl-4-yl]methyl}-7-propyl[1,2,4]triazolo[1,5-a]pyrimidin-5(4H)-one]",40,1.6
"CCCc1c(Cc2ccc(-c3ccccc3-c3noc(=O)[nH]3)cc2)c(=O)n([C@H]2CC[C@H](OCCO)CC2)c2ncnn12 [Example 164, 4-[trans-4-(2-hydroxyethoxy)cyclohexyl]-6-{[2′-(5-oxo-4,5-dihydro-1,2,4-oxadiazol-3-yl)biphenyl-4-yl]methyl}-7-propyl[1,2,4]triazolo[1,5-a]pyrimidin-5(4H)-one]",18,1
"CCCc1c(Cc2ccc(-c3ccccc3-c3noc(=O)[nH]3)cc2F)c(=O)n([C@H]2CC[C@@H](O)CC2)c2ncnn12 [Example 166, 6-{[3-fluoro-2′-(5-oxo-4,5-dihydro-1,2,4-oxadiazol-3-yl)biphenyl-4-yl]methyl}-4-(cis-4-hydroxycyclohexyl)-7-propyl[1,2,4]triazolo[1,5-a]pyrimidin-5(4H)-one]",22,1.3
"CCCc1c(Cc2ccc(-c3ccccc3-c3noc(=O)[nH]3)cc2F)c(=O)n([C@H]2CC[C@H](O)CC2)c2ncnn12 [Example 167, 6-{[3-fluoro-2′-(5-oxo-4,5-dihydro-1,2,4-oxadiazol-3-yl)biphenyl-4-yl]methyl}-4-(trans-4-hydroxycyclohexyl)-7-propyl[1,2,4]triazolo[1,5-a]pyrimidin-5(4H)-one]",43,0.8
"CCCc1c(Cc2ccc(-c3ccccc3-c3noc(=O)[nH]3)cc2)c(=O)n([C@H]2CC[C@H](C(=O)OCC)CC2)c2ncnn12 [Example 168, ethyl trans-4-[5-oxo-6-{[2′-(5-oxo-4,5-dihydro-1,2,4-oxadiazol-3-yl)biphenyl-4-yl]methyl}-7-propyl[1,2,4]triazolo[1,5-a]pyrimidin-4(5H)-yl]cyclohexanecarboxylate]",54,1.4
"CCCc1c(Cc2ccc(-c3ccccc3-c3noc(=O)[nH]3)cc2)c(=O)n([C@H]2CC[C@H](c3nc(C)no3)CC2)c2ncnn12 [Example 169, 4-[trans-4-(3-methyl-1,2,4-oxadiazol-5-yl)cyclohexyl]-6-{[2′-(5-oxo-4,5-dihydro-1,2,4-oxadiazol-3-yl)biphenyl-4-yl]methyl}-7-propyl[1,2,4]triazolo[1,5-a]pyrimidin-5(4H)-one]",54,1.4
"CCCc1c(Cc2ccc(-c3ccccc3-c3noc(=O)[nH]3)cc2)c(=O)n(C2CCC3(CC2)OCC(C)(C)CO3)c2ncnn12 [Example 170, 4-(3,3-dimethyl-1,5-dioxaspiro[5.5]undec-9-yl)-6-{[2′-(5-oxo-4,5-dihydro-1,2,4-oxadiazol-3-yl)biphenyl-4-yl]methyl}-7-propyl[1,2,4]triazolo[1,5-a]pyrimidin-5(4H)-one]",20,1.6
"CCCc1c(Cc2ccc(-c3ccccc3-c3noc(=O)[nH]3)cc2)c(=O)n([C@H]2CC[C@H](c3nnc(C)o3)CC2)c2ncnn12 [Example 173, 4-[trans-4-(5-methyl-1,3,4-oxadiazol-2-yl)cyclohexyl]-6-{[2′-(5-oxo-4,5-dihydro-1,2,4-oxadiazol-3-yl)biphenyl-4-yl]methyl}-7-propyl[1,2,4]triazolo[1,5-a]pyrimidin-5(4H)-one]",28,1.7
"CCCc1c(Cc2ccc(-c3ccccc3-c3noc(=O)[nH]3)cc2)c(=O)n(C2CCC3(CC2)OCC(C)(C)O3)c2ncnn12 (stereo not shown) [Example 179, 4-(2,2-dimethyl-1,4-dioxaspiro[4.5]dec-8-yl)-6-{[2′-(5-oxo-4,5-dihydro-1,2,4-oxadiazol-3-yl)biphenyl-4-yl]methyl}-7-propyl[1,2,4]triazolo[1,5-a]pyrimidin-5(4H)-one]",41,1.9
